Where no end group is shown, it is not given here.
Key:
[1] = system: human 3D organotypic skin model; test: IL-8 ELISA on culture supernatant of human 3D organotypic skin model; assay type: cell-based; conditions: human 3D skin equivalent model stimulated with 3.6 μM hepcidin; n ≥ 3 per group
[2] = system: human HaCat keratinocyte cell line; test: IL-8 ELISA on culture supernatant of HaCat; assay type: cell-based; conditions: HaCat stimulated with 3.6 μM hepcidin; n ≥ 3 per group
[3] = target: SpeB (Streptococcus pyogenes, UniProt P0C0J0)
[4] = system: GAS; test: Therapeutic treatment in GAS-induced necrotizing fasciitis mouse model; assay type: in vivo, mouse (C57BL6)
[5] = system: murine primary keratinocytes; test: Cytokines in culture supernatant of murine primary keratinocytes (V-PLEX Proinflammatory Panel1 / CXCL1 ELISA); assay type: cell-based, mouse
[6] = system: SpyCEP; conditions: incubated overnight with purified SpyCEP or PBS; mass spectrometry read-out; CXCL1 fragments of 5.9 kDa and 1.3 kDa
[7] = system: GAS; test: Rescue experiment: CXCL1 injection into GAS-infected Hamp1Δker mice; conditions: 1 µg/mouse rCXCL1 s.c. with infection and intralesionally at 24, 48 and 72 h, n ≥ 4 per group
Description: (G) Bacterial count in the skin of Hamp1^lox/lox and Hamp1Δ^ker mice injected daily with CXCL1 or PBS; n ≥ 4 per group.
were performed in a C57BL6 background, using 8-12 week old male littermates.
Mouse model of GAS infection
A well-established model of necrotizing soft tissue infection was adapted for this study (3, 4).
In brief, Hamp1lox/lox and Hamp1Δker mice male littermates were subcutaneously injected with
107 c.f.u. of M1T1 5448 GAS. Weight loss and lesion size of mice were estimated daily. After
96 hours, mice were sacrificed and skin necrotic ulcers, spleen, and blood (via retro orbital
bleeding) were recovered and homogenized in sterile PBS. Serial dilutions of tissue
homogenate were spread on THA plates to enumerate bacterial colony forming units (c.f.u.).
For the rescue experiment, Hamp1lox/lox and Hamp1Δker littermates were subcutaneously
infected with 107 c.f.u. of GAS with PBS or 1 µg/mouse of recombinant CXCL1 (rCXCL1;
R&D system, 1395-KC-025/CF). Mice were intralesionally injected again at 24, 48 and 72 h
with PBS or 1 µg of rCXCL1.

## human hepcidin (DTHFPICIFCCGCCHRSKCGMCCKT; ends and bridges not checked; cysteine pairing not given here; UniProt P81172 60-84, looked up) [human hepcidin used to stimulate HaCat and human 3D organotypic skin model]
[1]
  production of IL-8: induce the production of IL-8
[2]
  production of IL-8: induce the production of IL-8

## hepcidin (DTNFPICIFCCKCCNNSQCGICCKT; ends and bridges not checked; cysteine pairing not given here; UniProt Q9EQ21 59-83, looked up)
[3]
  cleavage by SpeB: not cleaved
[4]; CXCL1–/– mice, hepcidin treatment (Supplemental Figure 8)
  bacterial dissemination in CXCL1–/– mice: did not prevent bacterial dissemination
[4]; WT mice, s.c. 1 μg hepcidin 24 h after GAS infection, then 500 ng at 48 and 72 h, 4 days, n = 9
  weight variation: recovered their initial weight
[4]; WT mice, s.c. 1 μg hepcidin 24 h after GAS infection, then 500 ng at 48 and 72 h, spleen c.f.u. at 96 hours, n = 9, all control mice disseminated
  mice with absolutely no bacterial dissemination (bacterial count in spleen): 7 of the 9
[4]; WT mice, s.c. 1 μg hepcidin 24 h after GAS infection, then 500 ng at 48 and 72 h, vs PBS (weight loss, rough hair coat, hunched posture), n = 9
  signs of systemic disease: did not present any signs of systemic disease
[4]; WT mice, s.c. 1 μg hepcidin at inoculation site 24 h after GAS infection, then 500 ng at 48 and 72 h, n = 6 per group
  neutrophil recruitment: increase in neutrophil recruitment
[5]; murine primary keratinocytes incubated with 0.36 μM and 3.6 μM synthetic hepcidin for 1 or 3 hours, V-PLEX cytoplex, n = 3 per group
  CXCL1 in culture supernatant: dose-dependent increase
[5]; murine primary keratinocytes, 3.6 uM hepcidin, 1 or 3 hours, N=3 per group (Supplemental Figure 5)
  CXCL1 induction measured by ELISA: confirmed by ELISA
[6]
  cleavage by SpyCEP: not cleaved

## Ferric Ammonium Citrate [iron]
[5]; murine primary keratinocytes stimulated 3 hours with 500 μM ferric ammonium citrate (FAC), n = 3 per group
  CXCL1 production (ELISA): stimulated CXCL1 production

B1: CXCL1 (protein, UniProt P12850 25-96, looked up)
Growth-regulated alpha protein: APIANELRCQCLQTMAGIHLKNIQSLKVLPSGPHCTQTEVIATLKNGREACLDPEAPLVQKIVQKMLKGVPK
[7]
  bacterial count in the skin lesion: significantly decreased the number of bacteria
[6]
  cleavage by SpyCEP: cleaved

Reference: PMC6934188, “Epidermal hepcidin is required for neutrophil response to bacterial infection” (The Journal of Clinical Investigation, 2019)
